Reference: patent US12686690B2, “Macrocyclic urea orexin receptor agonists” (Merck Sharp & Dohme LLC, priority 2020, dated 2026)

Biological target: T1, hOX2R (Homo sapiens, UniProt O43614)
T1 construct: expressed in transfected cells; host or cells: CHO cells (G418 selection)
T1 sequence (O43614 1-444): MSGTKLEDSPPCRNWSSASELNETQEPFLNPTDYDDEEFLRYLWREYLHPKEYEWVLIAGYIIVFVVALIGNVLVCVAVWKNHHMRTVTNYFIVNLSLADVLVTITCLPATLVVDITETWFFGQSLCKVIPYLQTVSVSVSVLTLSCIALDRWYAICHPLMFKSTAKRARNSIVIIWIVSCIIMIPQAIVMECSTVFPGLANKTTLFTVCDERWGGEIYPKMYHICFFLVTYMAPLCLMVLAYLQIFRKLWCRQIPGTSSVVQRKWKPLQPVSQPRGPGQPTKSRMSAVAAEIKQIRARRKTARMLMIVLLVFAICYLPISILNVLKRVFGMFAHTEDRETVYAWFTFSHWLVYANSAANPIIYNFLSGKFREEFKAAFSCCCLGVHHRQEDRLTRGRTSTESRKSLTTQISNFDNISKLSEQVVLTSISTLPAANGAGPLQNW
Test: hOX2R IPone assay (orexin receptor agonism)
Assay type: cell-based
Settings: IPone readout; for hOX2R_Ipone max %act: maximal activation; for EC50: orexin receptor agonist, read-out: hOX2R_IPone EC50

SMILES | hOX2R_Ipone max %act | EC50
CCN1C(=O)NCc2nc(cs2)CCOc2nc(cn3ccnc23)-c2cccc(c2)[C@H]1C [Example 22, (R,27E,6^2Z)-10-ethyl-11-methyl-3-oxa-8,10-diaza-6(4,2)-thiazola-2(6,8)-imidazo[1,2-a]pyrazina-1(1,3)-benzenacycloundecaphan-9-one] | 94.8% | 82.6 nM
CCN1C(=O)NCc2nc(no2)CCOc2nc(cn3ccnc23)-c2cccc(c2)[C@H]1C [Example 23, (R,27E,64Z)-10-ethyl-11-methyl-3-oxa-8,10-diaza-6(3,5)-oxadiazola-2(6,8)-imidazo[1,2-a]pyrazina-1(1,3)-benzenacyclo-undecaphan-9-one] | 64.2% | 1010 nM
CCN1C(=O)NCCc2nc(no2)COc2nc(cn3ccnc23)-c2cccc(c2)[C@H]1C [Example 24, (R,27E,54Z)-10-ethyl-11-methyl-3-oxa-8,10-diaza-5(3,5)-oxadiazola-2(6,8)-imidazo[1,2-a]pyrazina-1(1,3)-benzenacyclo-undecaphan-9-one] | 61.5% | 814 nM
CCN1C(=O)NCC(C(F)(F)F)N(C)CCCOc2nc(cn3ccnc23)-c2cccc(c2)C1C [Example 26A, (3R,E)-4-ethyl-3,9-dimethyl-8-(trifluoromethyl)-13-oxa-4,6,9-triaza-1(6,8)-imidazo[1,2-a]pyrazina-2(1,3)-benzenacyclotridecaphan-5-one] | 99.4% | 13.9 nM
CCN1C(=O)NCC(C(F)(F)F)N(C)CCCOc2nc(cn3ccnc23)-c2cccc(c2)C1C [Example 26B, (3R,E)-4-ethyl-3,9-dimethyl-8-(trifluoromethyl)-13-oxa-4,6,9-triaza-1(6,8)-imidazo[1,2-a]pyrazina-2(1,3)-benzenacyclotridecaphan-5-one] | 98.8% | 12 nM
CCN1C(=O)N[C@@H](CCC(F)(F)F)CCCCOc2nc(cn3ccnc23)-c2cc(cnc2OC)[C@H]1C [Example 27, (3R,7R,E)-4-ethyl-22-methoxy-3-methyl-7-(3,3,3-trifluoropropyl)-12-oxa-4,6-diaza-1(6,8)-imidazo[1,2-a]pyrazina-2(3,5)-pyridinacyclododecaphan-5-one] | 101.1% | 1.4 nM
CCN1C(=O)N[C@@H](CCC(F)(F)F)CCCCCOc2nc(cn3ccnc23)-c2cc(cnc2OC)[C@H]1C [Example 28, (3R,7R,E)-4-ethyl-22-methoxy-3-methyl-7-(3,3,3-trifluoropropyl)-13-oxa-4,6-diaza-1(6,8)-imidazo[1,2-a]pyrazina-2(3,5)-pyridinacyclotridecaphan-5-one] | 102.2% | 0.9 nM
CCN1C(=O)N[C@@H](CCC(F)(F)F)CCCCOc2nc(cn3ccnc23)-c2ccnc(c2)[C@@H]1C [Example 29A, (12S,16R)-13-ethyl-12-methyl-16-(3,3,3-tri-fluoropropyl)-12,13,15,16,17, 18,19,20-octahydro-14H-6,22-(azeno)-11,7-(metheno) imidazo[2,1-c][1,4,10,13,15] oxatetraazacyclo-icosin-14-one] | 99.5% | 42.9 nM
CCN1C(=O)N[C@@H](CCC(F)(F)F)CCCCOc2nc(cn3ccnc23)-c2ccnc(c2)[C@H]1C [Example 29B, (12R,16R)-13-ethyl-12-methyl-16-(3,3,3-trifluoropropyl)-12,13,15,16,17, 18,19,20-octahydro-14H-6,22-(azeno)-11,7-(metheno) imidazo[2,1-c][1,4,10,13,15] oxatetraazacyclo-icosin-14-one] | 99.7% | 4.5 nM
CCN1C(=O)N[C@@H](CCC(F)(F)F)CCCCCOc2nc(cn3ccnc23)-c2ccnc(c2)[C@@H]1C [Example 30, (12S,16R)-13-ethyl-12-methyl-16-(3,3,3-trifluoropropyl)-12,13,16,17,18, 19,20,21-octa-hydro-6,23-(azeno)-11,7-(metheno)imidazo [2,1-c][1,4,10, 13,15]oxatetra-azacyclohenicosin-14(15H)-one] | 98.5% | 51.1 nM
CCN1C(=O)N[C@@H](CCC(F)(F)F)C/C=C\COc2nc(cn3ccnc23)-c2cccc(c2)[C@H]1C [Example 31, (1^7E,3R,7S,9Z)-4-ethyl-3-methyl-7-(3,3,3-trifluoropropyl)-12-oxa-4,6-diaza-1(6,8)-imidazo[1,2-a]pyrazina-2(1,3)-benzenacyclododecaphan-9-en-5-one] | 100.5% | 8 nM
CCN1C(=O)N[C@@H](CCC(F)(F)F)CCCCOc2nc(cn3ccnc23)-c2cccc(c2)[C@H]1C [Example 32, (3R,7R,E)-4-ethyl-3-methyl-7-(3,3,3-trifluoropropyl)-12-oxa-4,6-diaza-1(6,8)-imidazo[1,2-a]pyrazina-2(1,3)-benzenacyclododecaphan-5-one] | 101% | 2.8 nM
CCN1C(=O)N[C@@H](CCC(F)(F)F)C/C=C\COc2nc(cn3ncnc23)-c2cc(ncc2OC)C1C(F)(F)F (stereo partly drawn) [Example 33, (16S,18Z)-13-ethyl-8-methoxy-12-(trifluoromethyl)-16-(3,3,3-trifluoropropyl)-12,13,15,16,17,20-hexahydro-14H-6,22-(azeno)-11,7-(metheno) [1,2,4]triazolo[5,1-c] [1,4,10,13,15]oxatetra-azacycloicosin-14-one] | 98.8% | 335 nM
CCN1C(=O)NCCCCCOc2nc(cn3ncnc23)-c2cc(ncc2OC)C1C(F)(F)F (centres unmarked) [Example 35, 13-ethyl-8-methoxy-12-(trifluoromethyl)-12,13,15,16,17,18,19,20-octahydro-14H-6,22-(azeno)-11,7-(metheno) [1,2,4]triazolo[5,1-c][1,4,10,13,15]oxatetra-azacycloicosin-14-one] | 82.8% | 4710 nM
CCN1C(=O)N[C@@H](C(F)(F)F)CCCCOc2nc(cn3ncnc23)-c2cc(ncc2OC)C1C(F)(F)F (stereo partly drawn) [Example 37, (16R)-13-ethyl-8-methoxy-12,16-bis(trifluoromethyl)-12,13,15,16,17,18,19,20-octahydro-14H-6,22-(azeno)-11,7-(metheno) [1,2,4]triazolo[5,1-c][1,4,10,13,15]oxatetra-azacycloicosin-14-one] | 77.3% | 3010 nM
CCN1C(=O)N[C@@H](CC(F)(F)F)CCCCOc2nc(cn3ncnc23)-c2cc(ncc2OC)C1C(F)(F)F (stereo partly drawn) [Example 38, (16R)-13-ethyl-8-methoxy-16-(2,2,2-trifluoroethyl)-12-(trifluoromethyl)-12,13,15,16,17,18,19,20-octahydro-14H-6,22-(azeno)-11,7-(metheno) [1,2,4]triazolo[5,1-c][1,4,10,13,15]oxatetra-azacycloicosin-14-one] | 94.5% | 2390 nM
CCN1Cc2cccc(c2)-c2cn3ccnc3c(n2)OCCCC[C@H](CCC(F)(F)F)NC1=O [Example 43, (16R)-13-ethyl-16-(3,3,3-trifluoropropyl)-12,13,15,16,17,18,19,20-octahydro-14H-6,22-(azeno)-11,7-(metheno)imidazo[2,1-c][1,4,13,15]oxatriaza-cycloicosin-14-one] | 97.6% | 49.9 nM
CCN1Cc2ccc(OC)c(c2)-c2cn3ccnc3c(n2)OCCCC[C@H](CCC(F)(F)F)NC1=O [Example 44, (16R)-13-ethyl-8-methoxy-16-(3,3,3-trifluoropropyl)-12,13,15,16,17,18,19,20-octahydro-14H-6,22-(azeno)-11,7-(metheno)imidazo[2,1-c][1,4,13,15]oxatriaza-cycloicosin-14-one] | 100.4% | 1 nM
CCN1Cc2cc(c(OC)cn2)-c2cn3ccnc3c(n2)OCCCC[C@H](CCC(F)(F)F)NC1=O [Example 45, (16R)-13-ethyl-8-methoxy-16-(3,3,3-trifluoropropyl)-12,13,15,16,17,18,19,20-octahydro-14H-6,22-(azeno)-11,7-(metheno)imidazo[2,1-c][1,4,10,13,15]oxatetra-azacycloicosin-14-one] | 100.1% | 14.1 nM
CCN1C(=O)N[C@@H](CCC(F)(F)F)CCCCOc2nc(nn3ccnc23)-c2cc(cnc2OC)[C@H]1C [Example 46, (3R,7R,E)-4-ethyl-22-methoxy-3-methyl-7-(3,3,3-trifluoropropyl)-12-oxa-4,6-diaza-1(2,4)-imidazo[2,1-f][1,2,4]triazina-2(3,5)-pyridinacyclododecaphan-5-one] | 99.9% | 9.9 nM
CCN1C(=O)N[C@@H](CCC(F)(F)F)CCCCCOc2nc(nn3ccnc23)-c2cc(cnc2OC)[C@H]1C [Example 47, (3R,7R,E)-4-ethyl-22-methoxy-3-methyl-7-(3,3,3-trifluoropropyl)-13-oxa-4,6-diaza-1(2,4)-imidazo[2,1-f][1,2,4]triazina-2(3,5)-pyridinacyclotridecaphan-5-one] | 100.5% | 4.3 nM
CCN1C(=O)NCCCCCOc2nc(cn3ccnc23)-c2cccc(c2)[C@H]1C [Example 49, (12R)-13-ethyl-12-methyl-12,13,15,16,17,18,19,20-octahydro-14H-6,22-(azeno)-11,7-(metheno)imidazo[2,1-c][1,4,13,15]oxatriaza-cycloicosin-14-one] | 74.7% | 42 nM
